In patent US20040048791A1, “Method for treating neoplastic cells using cycloprodigiosin or salt thereof” (priority 2002, published 2004):
Entries after “also recorded” stand apart in the source; their conditions may differ. Counter-ions that a name gives are not always drawn.

Tests used:
IKK = target: T1, IKK (Homo sapiens, UniProt O14920+O15111); assay: IKK activation in stimulated cells (immune complex kinase assay); format: cell-based; conditions: FIG. 2D
T1 construct: host or cells: HeLa cells (inferred)
Experimental: Luciferase gene reporter assay and Kinase assays of IKK: HeLa cells were transfected with the reporter plasmids described above using Lipofectin (GIBCO BRL). After 24-48 hr, the luciferase activity was determined using the Luciferase Assay System (Promega). The kinase activity of IKKα and IKKβ were analyzed by immune complex kinase assay as described previously (Oka, S., Kamata, H., Kamata, K., Yagisawa, H. and Hirata, H. (2000) FEBS Lett. 472, 196-202). The substrates was using GST-IκBα(1-55) or GST-p65(399-551).
In order to find out the mechanism of NF-κB suppression by cPrG-HCl, the effect on the signal transduction system, which functions upstream of NF-κB, was analyzed. First, the effect of cPrG-HCl on IKK activity was examined. […] Next, the effect of cPrG-HCl on phosphorylation and degradation of IκB was analyzed by Western blotting using anti-IκB antibody (FIG. 2E). In FIG. 2E, black arrows indicate IκBα and white arrows indicate phosphorylated IκBα. […] Namely, cPrG-HCl suppressed NF-κB activation without suppressing the steps up to IκB degradation. Accordingly, nuclear translocation of NF-κB was analyzed by Western blotting using p65 and p50 which are components of NF-κB (FIG. 2F). […] Further, the state of NF-κB activation in the nucleus was analyzed by EMSA (electrophoretic mobility shift assay) (FIG. 2G). In FIG. 2G, “n. s.” means nonspecific band.

JNK = conditions: earlier abstract of the inventors (Kamata et al., 2000); cited from earlier work
caspase-3 = assay: Caspase-3 assay with DEVD-AFC on cell extracts; format: cell-based; conditions: HeLa cells, cPrG-HCl and TNFα, FIG. 1B; hydrochloride
Experimental: (§1) Assay for apoptotic processes: Cell viability was determined by dye exclusion assay using 0.1% trypan blue. DNA fragmentation was analyzed as described previously (Kawauchi, K. et al. (1997) Biochem. Biophys. Res. Commun. 237, 543-547). In the caspase-3 assay, cells were disrupted by freeze-thaw in an extraction buffer (50 mM Tris-HCl, pH7.4, 1 mM EGTA, 5 mM EDTA, 5 mM MgCl2, 1 mM APMSF, 10 μg/ml pepstatin, 10 μg/ml leupeptin, and 1 mM DTT). Then the suspension was centrifuged at 15,000 rpm for 20 min, and the supernatants obtained were incubated at 37° C. for 60 min in a reaction buffer (50 mM Tris-HCl, pH7.4, 1 mM EDTA, 10 mM EGTA) with 20 μM of the fluorogenic substrate DEVD-AFC (Peptide Institute, Inc., Japan). Cleavage of the substrates was quantified by measuring the fluorescence of 7-amino-4-trifluomethyl coumarin released using a spectrofluorometer (Shimadzu RF5000) with excitation at 380 mn and emission at 460 nm.
(§2) HeLa cells were treated with TNFα and cPrG.HCl and the effect of cPrG.HCl on apoptosis was examined by measuring DNA fragmentation and survivability.

AP-1 = conditions: earlier abstract of the inventors (Kamata et al., 2000); cited from earlier work
casein kinase II (CKII) = casein kinase II (CKII) (Homo sapiens, UniProt P68400); assay: Casein kinase II activity in vitro; format: biochemical; conditions: FIG. 12, hydrochloride
Source text: Accordingly, in order to identify the p65 kinase which cPrG-HCl suppressed, the effect of cPrG-HCl on PKA (FIG. 13), casein kinase II (CKII) (FIG. 12), and IκB kinase (IKK) (FIG. 14) was studied in vitro.

NF-κB [1] = assay: EMSA of NF-κB DNA binding activity in nuclear extract; format: cell-based
Experimental: Electrophoretic mobility shift assay (EMSA): Nuclear extracts were prepared by the method of Schreiber, et al (Schreiber, E., Matthias, P., Muller, M. M. and Schaffner, W. (1989) Nucleic Acids Res. 17, 6419). Briefly, cells were solubilized with a buffer (10 mM HEPES-NaOH, pH 7.9, 10 mM KCl, 0.1 mM EDTA, 0.1 mM EGTA, 0.4% NP-40, 0.5 mM PMSF, 1 μg/ml aprotinin, 1 μg/ml leupeptin, 1 μg/ml pepstatin, 1 mM DTT), and then centrifuged at 10,000 rpm for 15 min. The pellets were resuspended in a buffer (20 mM HEPES-NaOH, pH 7.9, 400 mM NaCl, 1 mM EDTA, 1 mM EGTA, 1 mM PMSF, 1 μg/ml aprotinin, 1 μg/ml leupeptin, 1 μg/ml pepstatin, 1 μg/ml chymostatin, 1 μg/ml antipain, 1 mM DTT), and then centrifuged at 15,000 rpm for 15 min. […] The samples were electrophoresed on an 8% polyacrylamide gel and analyzed by an Imaging plate (Fuji Film).
In order to find out the mechanism of NF-κB suppression by cPrG-HCl, the effect on the signal transduction system, which functions upstream of NF-κB, was analyzed. […] Next, the effect of cPrG-HCl on phosphorylation and degradation of IκB was analyzed by Western blotting using anti-IκB antibody (FIG. 2E). […] Accordingly, nuclear translocation of NF-κB was analyzed by Western blotting using p65 and p50 which are components of NF-κB (FIG. 2F). […] Further, the state of NF-κB activation in the nucleus was analyzed by EMSA (electrophoretic mobility shift assay) (FIG. 2G). […]

NF-κB [2] = conditions: earlier abstract of the inventors (Kamata et al., 2000); cited from earlier work
HeLa cells [3] = assay: Cell viability by trypan blue dye exclusion assay; format: cell-based; conditions: FIG. 1A
Experimental: (§3) Cell culture: HeLa cells were cultured in Dulbecco's modified Eagle's medium supplemented with 10% fetal bovine serum and 50 μg/ml kanamycin at 37° C. in 5% CO2 in air.
as §1

HeLa cells [4] = assay: DNA fragmentation (apoptosis) in HeLa cells; format: cell-based; conditions: cPrG-HCl together with TNFα, FIG. 1A, hydrochloride
Experimental: as §3, §1, §2

NF-κB [5] = conditions: earlier abstract of the inventors (Kamata et al., 2000); cited from earlier work; remark: listed apart in the source

Sequence of casein kinase II (CKII) (P68400 whole entry): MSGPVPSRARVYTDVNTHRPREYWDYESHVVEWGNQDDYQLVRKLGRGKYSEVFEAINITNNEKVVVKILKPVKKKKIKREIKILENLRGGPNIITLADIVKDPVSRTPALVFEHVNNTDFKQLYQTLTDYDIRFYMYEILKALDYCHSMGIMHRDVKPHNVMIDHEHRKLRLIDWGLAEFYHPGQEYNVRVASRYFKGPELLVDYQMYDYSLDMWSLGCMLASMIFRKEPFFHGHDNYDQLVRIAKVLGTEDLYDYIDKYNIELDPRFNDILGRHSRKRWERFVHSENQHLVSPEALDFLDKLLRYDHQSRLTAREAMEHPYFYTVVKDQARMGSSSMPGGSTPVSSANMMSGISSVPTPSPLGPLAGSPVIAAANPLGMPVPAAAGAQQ
T1 sequence (O15111 whole entry): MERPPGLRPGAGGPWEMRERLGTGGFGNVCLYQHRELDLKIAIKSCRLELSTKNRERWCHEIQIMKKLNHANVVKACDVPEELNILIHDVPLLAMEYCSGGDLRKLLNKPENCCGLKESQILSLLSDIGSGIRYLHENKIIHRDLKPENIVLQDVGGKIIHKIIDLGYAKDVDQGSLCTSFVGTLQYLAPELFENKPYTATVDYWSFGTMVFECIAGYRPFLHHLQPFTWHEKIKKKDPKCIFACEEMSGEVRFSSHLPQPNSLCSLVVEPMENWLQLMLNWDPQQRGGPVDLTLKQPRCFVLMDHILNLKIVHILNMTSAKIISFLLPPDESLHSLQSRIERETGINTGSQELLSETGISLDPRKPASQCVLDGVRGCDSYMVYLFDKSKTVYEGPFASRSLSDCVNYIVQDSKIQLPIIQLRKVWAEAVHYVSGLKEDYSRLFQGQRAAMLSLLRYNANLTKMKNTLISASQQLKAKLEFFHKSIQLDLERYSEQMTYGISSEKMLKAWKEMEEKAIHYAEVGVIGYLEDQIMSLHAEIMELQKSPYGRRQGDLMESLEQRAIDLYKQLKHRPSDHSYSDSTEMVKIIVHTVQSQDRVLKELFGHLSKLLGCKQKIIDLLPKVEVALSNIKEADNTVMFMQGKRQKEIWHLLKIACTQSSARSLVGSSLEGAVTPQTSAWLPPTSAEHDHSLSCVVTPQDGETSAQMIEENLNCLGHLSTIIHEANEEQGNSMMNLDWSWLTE
T1 sequence (O14920 whole entry): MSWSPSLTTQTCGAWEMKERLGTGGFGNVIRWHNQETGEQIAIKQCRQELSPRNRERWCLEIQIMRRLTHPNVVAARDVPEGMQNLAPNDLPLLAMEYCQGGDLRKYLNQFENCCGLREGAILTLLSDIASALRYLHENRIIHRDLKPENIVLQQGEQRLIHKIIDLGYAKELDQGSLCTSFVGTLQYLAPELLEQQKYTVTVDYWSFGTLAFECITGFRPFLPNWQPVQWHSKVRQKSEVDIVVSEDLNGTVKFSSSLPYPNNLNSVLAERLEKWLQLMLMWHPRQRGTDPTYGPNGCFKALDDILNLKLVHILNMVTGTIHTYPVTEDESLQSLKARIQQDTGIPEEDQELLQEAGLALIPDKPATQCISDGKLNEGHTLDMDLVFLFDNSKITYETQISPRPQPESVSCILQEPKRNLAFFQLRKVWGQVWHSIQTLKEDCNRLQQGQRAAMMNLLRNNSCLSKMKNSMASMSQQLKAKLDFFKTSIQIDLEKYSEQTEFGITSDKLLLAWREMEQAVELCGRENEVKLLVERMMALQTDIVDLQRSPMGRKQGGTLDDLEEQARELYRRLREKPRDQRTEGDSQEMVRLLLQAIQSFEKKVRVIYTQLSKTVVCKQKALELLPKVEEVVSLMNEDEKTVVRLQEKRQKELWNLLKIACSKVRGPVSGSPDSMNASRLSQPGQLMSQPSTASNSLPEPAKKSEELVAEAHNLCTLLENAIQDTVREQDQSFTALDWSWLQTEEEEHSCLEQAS
T1 sequence (Q9Y6K9 whole entry partner): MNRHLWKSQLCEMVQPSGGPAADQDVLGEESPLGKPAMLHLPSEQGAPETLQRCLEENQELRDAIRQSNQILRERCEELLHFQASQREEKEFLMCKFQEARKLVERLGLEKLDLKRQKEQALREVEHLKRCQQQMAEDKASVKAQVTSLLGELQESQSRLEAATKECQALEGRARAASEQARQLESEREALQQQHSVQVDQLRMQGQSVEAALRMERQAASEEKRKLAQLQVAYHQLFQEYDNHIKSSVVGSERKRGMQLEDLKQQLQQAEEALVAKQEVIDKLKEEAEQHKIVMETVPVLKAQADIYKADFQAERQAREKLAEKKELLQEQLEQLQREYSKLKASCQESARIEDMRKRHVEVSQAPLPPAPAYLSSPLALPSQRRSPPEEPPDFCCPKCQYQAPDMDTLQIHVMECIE

Structure (SMILES): COC1=CC(c2ccc[nH]2)=N/C1=C\c1[nH]c(C)c2c1C(C)CCC2 (stereo not drawn) [cPrG-HCl, Cycloprodigiosin hydrochloride]
- TNFα-induced IKK activation (IKK): did not suppressed
- JNK activation (JNK): no suppressive effect
- caspase-3 activation (caspase-3): markedly induced; also recorded: marked synergistic caspase-3 activation
- gene expression induction by AP-1 (AP-1): significantly suppressed
- effect on casein kinase II (CKII) activity (casein kinase II (CKII)): does not directly suppress; also recorded: no suppressive effect
- DNA binding activation of NF-κB (NF-κB [1]; PMA stimulation, FIG. 3B): inhibited neither
- DNA binding activity of NF-κB (NF-κB [1]; TNFα stimulation, FIG. 2G): did not suppress
- nuclear translocation of NF-κB (NF-κB [2]): no suppressive effect
- cell viability (HeLa cells [3]; cPrG-HCl present upon TNFα stimulation): about 65%
- cell viability (HeLa cells [3]; cPrG-HCl treatment alone): slightly decreased
- DNA fragmentation (HeLa cells [4]): marked DNA fragmentation; also recorded: significant DNA fragmentation
- gene expression induction by NF-κB (NF-κB [5]): significantly suppressed
